What all share (assay type): cell-based
Assay [1] concerns the target T1, EGFR L858R+T790M, endogenous (NCI-H1975) (Homo sapiens, UniProt P00533, L858R/T790M).
T1 construct: NCI-H1975 (EGFR L858R+T790M, endogenous); host or cells: NCI-H1975
Put plainly: pEGFR Y1068 ELISA assay, NCI-H1975 cells. Conditions: inhibition of phosphorylation of EGFR at Tyr1068; NCI-H1975 NSCLC cells; 2 hr compound incubation.

In a further assay the target is T2, EGFR del/T790M (PC9-DRH) (Homo sapiens, UniProt P00533, DEL746-750/T790M).
T2 construct: detects endogenous levels of phospho-EGF Receptor (Tyr1068) protein; endogenous in cells; host or cells: PC9-DRH (dacomitinib-resistant derivative of PC9, generated in house)
As to the kind of experiment: pEGFR Y1068 ELISA assay, PC9-DRH cells. As to conditions: inhibition of phosphorylation of EGFR at Tyr1068; PC9-DRH cells (dacomitinib resistant); 2 hr compound incubation.

In assay [2] the target is T3, EGFR wildtype, endogenous (A549) (Homo sapiens, UniProt P00533).
T3 construct: A549 (EGFR wildtype, endogenous); host or cells: A549 (stimulated with EGF)
Put plainly: pEGFR Y1068 ELISA assay, A549 cells. Conditions: inhibition of phosphorylation of EGFR at Tyr1068; A549 NSCLC cells; 2 hr compound incubation, then stimulated 10 min with EGF (40 ng/mL).
Description: Phosphorylation of EGFR at Y1068 was measured by PathScan® Phospho-EGF Receptor (Try1068) Sandwich ELISA kit (#7240, Cell Signaling Technology®, Danvers, Mass.). The PathScan® Phospho-EGF Receptor (Tyr1068) Sandwich ELISA Kit is a solid phase sandwich enzyme-linked immunosorbent assay (ELISA) that detects endogenous levels of phospho-EGF Receptor (Tyr1068) protein. […] All cells were cultured according to ATCC recommendations. A549, NCI-H1975, PC9, and NCI-H3255 cells were grown in RPMI media (Invitrogen, Carlsbad, Calif.) supplemented with 10% FBS (Sigma, St Louis, Mo.), and with 1% Penn/Strep (Invitrogen). PC9-DRH cells were grown in RPMI with 10% FBS and 1 μM dacomitinib.
Cells were plated at 40,000/well in complete culture media (50 μL/well) on the bottom of clear tissue culture treated microtiter plates (#3595, Corning Inc, Corning, N.Y.) and allowed to adhere overnight at 37° C., 5% CO2. The following day, compound dilution plates were prepared in 96 well clear V-bottom 0.5 mL polypropylene block plates (#3956, Corning, Inc). Each compound was prepared as a DMSO stock solution (10 mM). Compounds were tested in duplicate on each plate, with an 11-point serial dilution curve (1:3 dilution). Compound treatment (50 μL) was added from the compound dilution plate to the cell plate. […] Plates were then incubated for 2 hr at 37° C., 5% CO2. For A549 (EGFR wildtype) assay, cells were plated in full-serum (10%) media for 24 hr prior to compound treatment; cells were treated in full serum media as described and then stimulated for 10 min with EGF (40 ng/mL/starvation media, Invitrogen). Immediately prior to the end of the incubation, ice-cold lysis buffer was prepared (1× Cell Lysis Buffer (#9803, Cell Signaling Technology), 1 mM sodium orthovanadate (Na3VO4, #96508, Sigma), 1 mM phenylmethanesulfonyl fluoride (PMSF, 52332, CalBiochem/EMD Chemicals), complete Mini EDTA-free Protease Inhibitor Cocktail Tablet (1 tablet/10 mL, #11836170001, Roche, Indianapolis, Ind.), and PhosSTOP Phosphatase Inhibitor Cocktail Tablet (1 tablet/10 mL, #04906837001, Roche) in pure water. At the end of 2 hr, media was flicked off and cells were washed once with ice-cold 1 mM Na3VO4 in PBS (100 μL/well, Invitrogen). The wash was then flicked off and ice-cold lysis buffer was added to the cells (50 μL/well). The plate was shaken for 20-30 min at 4° C. to completely lyse the cells. Sample diluent (50 μL/well) was added to the ELISA plate, and the lysate (50 μL) was diluted into the sample diluent in each well of the ELISA plate. Plates were sealed and incubated overnight at 4° C. with shaking. The next day, wells were washed four times with 1× Wash Buffer; plates were taped on lint-free paper after the final wash prior to adding Add Detection Antibody (green, 100 μL/well) to each well and incubating for 1 hr at 37° C. After incubation, wells were washed as described. HRP-Linked secondary antibody (red, 100 μL/well) was added to each well and incubated for 30 min at 37° C. After incubation, the wells were washed as described. TMB Substrate (100 μL/well) was added to each well and the plate incubated for 10 min at 37° C. or 30 min at rt maximum. Stop Solution (100 μL/well) was added to each well at the end of the incubation and plates were shaken gently for a few seconds. Absorbance was read at 450 nm within 30 min after addition of Stop Solution on a PerkinElmer EnVision Excite Multilabel Reader Method for Absorbance or on a Molecular Devices SpectraMax^384 Reader for absorbance. Data were analyzed using a four-parameter fit in Microsoft Excel.

Another assay concerns the target T4, EGFR del (PC9) (Homo sapiens, UniProt P00533, DEL746-750).
T4 construct: detects endogenous levels of phospho-EGF Receptor (Tyr1068) protein; host or cells: PC9
Put plainly: pEGFR Y1068 ELISA assay, PC9 cells. As to conditions: inhibition of phosphorylation of EGFR at Tyr1068; PC9 NSCLC cells; 2 hr compound incubation. In general terms: In an ELISA, binding on a coated surface is turned into a signal by an enzyme label.

Drawing on patent US9290496B2, “Purine derivatives” (PFIZER INC., priority 2013, dated 2016), this text covers IC50 for 22 compounds.

Each structure is given as a SMILES string.

T4 sequence (P00533 with tags, fused parts or gaps DEL746-750): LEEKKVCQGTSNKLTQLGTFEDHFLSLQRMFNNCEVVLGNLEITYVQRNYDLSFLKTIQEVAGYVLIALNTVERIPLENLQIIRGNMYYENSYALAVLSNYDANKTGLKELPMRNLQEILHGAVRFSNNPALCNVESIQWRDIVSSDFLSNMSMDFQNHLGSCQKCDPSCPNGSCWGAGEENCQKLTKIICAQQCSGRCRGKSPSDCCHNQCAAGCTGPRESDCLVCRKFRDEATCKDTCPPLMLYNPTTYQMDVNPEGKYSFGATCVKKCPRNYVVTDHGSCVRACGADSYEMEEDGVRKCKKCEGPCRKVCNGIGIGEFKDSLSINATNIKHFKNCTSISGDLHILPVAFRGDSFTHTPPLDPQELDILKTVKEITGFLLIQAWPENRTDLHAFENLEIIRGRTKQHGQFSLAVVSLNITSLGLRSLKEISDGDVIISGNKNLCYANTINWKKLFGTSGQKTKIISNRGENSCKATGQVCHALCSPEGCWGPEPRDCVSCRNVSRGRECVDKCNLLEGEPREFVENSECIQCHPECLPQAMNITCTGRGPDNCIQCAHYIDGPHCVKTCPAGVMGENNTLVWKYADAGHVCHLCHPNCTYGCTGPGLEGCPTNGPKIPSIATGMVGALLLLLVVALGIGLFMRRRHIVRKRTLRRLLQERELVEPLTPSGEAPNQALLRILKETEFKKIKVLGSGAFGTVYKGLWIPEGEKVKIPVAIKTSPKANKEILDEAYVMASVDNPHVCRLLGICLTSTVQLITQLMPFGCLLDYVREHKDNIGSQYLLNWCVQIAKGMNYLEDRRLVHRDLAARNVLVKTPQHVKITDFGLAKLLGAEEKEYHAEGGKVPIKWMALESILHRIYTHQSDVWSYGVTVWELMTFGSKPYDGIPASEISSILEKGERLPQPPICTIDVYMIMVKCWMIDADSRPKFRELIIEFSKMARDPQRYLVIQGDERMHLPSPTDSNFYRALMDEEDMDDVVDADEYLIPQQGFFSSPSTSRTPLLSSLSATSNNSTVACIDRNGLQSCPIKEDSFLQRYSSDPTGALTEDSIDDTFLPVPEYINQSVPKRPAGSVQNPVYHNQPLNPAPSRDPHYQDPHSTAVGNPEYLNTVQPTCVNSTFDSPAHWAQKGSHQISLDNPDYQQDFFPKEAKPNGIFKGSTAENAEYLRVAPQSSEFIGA
T3 sequence (P00533 25-1210): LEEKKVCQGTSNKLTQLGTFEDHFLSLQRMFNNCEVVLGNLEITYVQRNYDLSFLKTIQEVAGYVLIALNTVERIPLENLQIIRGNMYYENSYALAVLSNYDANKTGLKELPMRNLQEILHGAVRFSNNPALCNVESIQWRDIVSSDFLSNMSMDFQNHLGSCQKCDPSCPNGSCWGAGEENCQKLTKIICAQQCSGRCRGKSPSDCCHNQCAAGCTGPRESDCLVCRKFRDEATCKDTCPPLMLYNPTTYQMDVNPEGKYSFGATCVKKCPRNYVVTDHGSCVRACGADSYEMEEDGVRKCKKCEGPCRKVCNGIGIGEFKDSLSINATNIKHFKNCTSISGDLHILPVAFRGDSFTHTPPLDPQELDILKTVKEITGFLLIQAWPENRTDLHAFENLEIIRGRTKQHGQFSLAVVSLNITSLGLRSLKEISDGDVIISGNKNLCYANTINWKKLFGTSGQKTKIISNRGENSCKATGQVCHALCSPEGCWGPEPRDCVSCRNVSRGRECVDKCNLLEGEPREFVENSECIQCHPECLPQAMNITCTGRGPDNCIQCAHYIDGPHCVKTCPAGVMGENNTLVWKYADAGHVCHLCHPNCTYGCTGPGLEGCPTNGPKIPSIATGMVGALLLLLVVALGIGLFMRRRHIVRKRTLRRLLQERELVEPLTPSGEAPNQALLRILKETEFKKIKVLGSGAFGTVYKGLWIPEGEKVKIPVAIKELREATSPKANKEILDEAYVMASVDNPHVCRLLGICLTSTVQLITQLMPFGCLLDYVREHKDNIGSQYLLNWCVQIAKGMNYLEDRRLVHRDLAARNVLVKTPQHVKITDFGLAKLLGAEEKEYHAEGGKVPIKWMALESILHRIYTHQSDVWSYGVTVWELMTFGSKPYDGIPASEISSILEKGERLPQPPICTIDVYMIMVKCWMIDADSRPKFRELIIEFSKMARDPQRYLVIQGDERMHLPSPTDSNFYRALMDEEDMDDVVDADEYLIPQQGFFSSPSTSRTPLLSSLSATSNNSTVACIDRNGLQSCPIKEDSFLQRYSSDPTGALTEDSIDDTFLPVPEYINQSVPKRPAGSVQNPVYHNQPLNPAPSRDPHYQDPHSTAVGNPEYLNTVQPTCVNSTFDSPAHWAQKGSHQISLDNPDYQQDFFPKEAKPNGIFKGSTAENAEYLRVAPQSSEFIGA
T2 sequence (P00533 with tags, fused parts or gaps DEL746-750/T790M): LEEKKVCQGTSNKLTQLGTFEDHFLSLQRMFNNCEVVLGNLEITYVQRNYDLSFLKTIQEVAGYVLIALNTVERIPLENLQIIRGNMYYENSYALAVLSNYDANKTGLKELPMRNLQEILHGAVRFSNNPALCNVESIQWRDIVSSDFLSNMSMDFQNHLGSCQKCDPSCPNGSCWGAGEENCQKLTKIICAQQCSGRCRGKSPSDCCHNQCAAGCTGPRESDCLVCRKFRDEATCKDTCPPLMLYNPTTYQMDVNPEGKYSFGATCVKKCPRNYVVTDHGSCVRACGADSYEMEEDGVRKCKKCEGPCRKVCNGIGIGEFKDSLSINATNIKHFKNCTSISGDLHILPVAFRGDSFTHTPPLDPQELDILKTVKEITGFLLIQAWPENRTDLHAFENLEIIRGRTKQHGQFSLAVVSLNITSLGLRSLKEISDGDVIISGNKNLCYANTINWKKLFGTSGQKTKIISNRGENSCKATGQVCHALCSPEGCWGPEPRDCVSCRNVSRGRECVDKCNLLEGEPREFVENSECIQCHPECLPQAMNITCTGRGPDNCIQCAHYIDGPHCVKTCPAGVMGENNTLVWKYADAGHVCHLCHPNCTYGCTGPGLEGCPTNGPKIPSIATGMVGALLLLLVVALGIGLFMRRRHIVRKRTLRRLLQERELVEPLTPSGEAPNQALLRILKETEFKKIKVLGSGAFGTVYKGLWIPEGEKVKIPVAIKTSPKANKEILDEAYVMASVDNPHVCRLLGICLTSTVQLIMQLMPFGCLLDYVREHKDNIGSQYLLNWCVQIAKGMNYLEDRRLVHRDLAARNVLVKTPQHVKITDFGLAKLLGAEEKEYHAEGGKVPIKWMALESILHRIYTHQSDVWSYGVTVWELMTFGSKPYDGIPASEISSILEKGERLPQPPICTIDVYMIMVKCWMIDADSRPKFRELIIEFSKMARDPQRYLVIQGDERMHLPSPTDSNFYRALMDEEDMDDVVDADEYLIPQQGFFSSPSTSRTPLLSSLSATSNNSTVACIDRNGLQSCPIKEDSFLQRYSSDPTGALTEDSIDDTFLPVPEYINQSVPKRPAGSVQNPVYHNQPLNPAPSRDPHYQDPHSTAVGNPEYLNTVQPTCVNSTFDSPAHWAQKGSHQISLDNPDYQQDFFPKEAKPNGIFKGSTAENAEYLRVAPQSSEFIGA
T1 sequence (P00533 25-1210 T790M/L858R): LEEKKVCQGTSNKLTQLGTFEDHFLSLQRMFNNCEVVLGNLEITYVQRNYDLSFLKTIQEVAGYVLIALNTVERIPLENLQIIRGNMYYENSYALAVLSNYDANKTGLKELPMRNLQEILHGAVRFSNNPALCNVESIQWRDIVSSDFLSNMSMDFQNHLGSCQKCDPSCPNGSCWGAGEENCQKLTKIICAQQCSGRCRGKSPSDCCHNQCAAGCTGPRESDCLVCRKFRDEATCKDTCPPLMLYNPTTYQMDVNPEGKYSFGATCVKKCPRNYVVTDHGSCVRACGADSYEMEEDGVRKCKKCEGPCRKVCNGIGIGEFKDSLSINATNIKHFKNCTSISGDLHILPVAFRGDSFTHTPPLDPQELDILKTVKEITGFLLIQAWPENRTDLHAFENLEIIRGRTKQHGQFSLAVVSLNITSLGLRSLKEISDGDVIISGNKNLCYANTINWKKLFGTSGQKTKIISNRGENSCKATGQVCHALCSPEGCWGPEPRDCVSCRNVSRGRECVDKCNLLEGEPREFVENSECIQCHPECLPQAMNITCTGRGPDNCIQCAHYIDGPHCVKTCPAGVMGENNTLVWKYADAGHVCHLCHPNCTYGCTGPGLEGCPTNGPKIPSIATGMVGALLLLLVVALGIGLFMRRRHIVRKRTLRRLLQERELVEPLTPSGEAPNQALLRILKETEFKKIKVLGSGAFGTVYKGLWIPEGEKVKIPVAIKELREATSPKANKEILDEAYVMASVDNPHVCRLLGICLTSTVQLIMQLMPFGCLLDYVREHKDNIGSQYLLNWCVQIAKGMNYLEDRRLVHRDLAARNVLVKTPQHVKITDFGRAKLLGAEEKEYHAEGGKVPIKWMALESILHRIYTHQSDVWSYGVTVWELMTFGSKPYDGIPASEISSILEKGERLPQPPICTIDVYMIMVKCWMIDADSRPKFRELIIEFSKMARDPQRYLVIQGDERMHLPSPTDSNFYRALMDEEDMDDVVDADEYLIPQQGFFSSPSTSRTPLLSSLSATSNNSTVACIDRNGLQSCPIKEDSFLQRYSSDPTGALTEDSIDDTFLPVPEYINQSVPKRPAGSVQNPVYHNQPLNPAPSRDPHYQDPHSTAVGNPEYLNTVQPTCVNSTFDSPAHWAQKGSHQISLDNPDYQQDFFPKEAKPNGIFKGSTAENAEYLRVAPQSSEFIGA
Description for EGFR del (PC9): (§1) The PathScan® Phospho-EGF Receptor (Tyr1068) Sandwich ELISA Kit is a solid phase sandwich enzyme-linked immunosorbent assay (ELISA) that detects endogenous levels of phospho-EGF Receptor (Tyr1068) protein. […] NCI-H3255 cells were licensed from NCI. […] All cells were cultured according to ATCC recommendations. A549, NCI-H1975, PC9, and NCI-H3255 cells were grown in RPMI media (Invitrogen, Carlsbad, Calif.) supplemented with 10% FBS (Sigma, St Louis, Mo.), and with 1% Penn/Strep (Invitrogen).
(§2) Each compound was prepared as a DMSO stock solution (10 mM). Compounds were tested in duplicate on each plate, with an 11-point serial dilution curve (1:3 dilution). Compound treatment (50 μL) was added from the compound dilution plate to the cell plate. […] Plates were then incubated for 2 hr at 37° C., 5% CO2. […] The wash was then flicked off and ice-cold lysis buffer was added to the cells (50 μL/well). The plate was shaken for 20-30 min at 4° C. to completely lyse the cells. Sample diluent (50 μL/well) was added to the ELISA plate, and the lysate (50 μL) was diluted into the sample diluent in each well of the ELISA plate. Plates were sealed and incubated overnight at 4° C. with shaking. The next day, wells were washed four times with 1× Wash Buffer; plates were taped on lint-free paper after the final wash prior to adding Add Detection Antibody (green, 100 μL/well) to each well and incubating for 1 hr at 37° C. After incubation, wells were washed as described. HRP-Linked secondary antibody (red, 100 μL/well) was added to each well and incubated for 30 min at 37° C. After incubation, the wells were washed as described. TMB Substrate (100 μL/well) was added to each well and the plate incubated for 10 min at 37° C. or 30 min at rt maximum. Stop Solution (100 μL/well) was added to each well at the end of the incubation and plates were shaken gently for a few seconds. […] Data were analyzed using a four-parameter fit in Microsoft Excel.
Description for EGFR del/T790M (PC9-DRH): as §1, §2

With `C=CC(=O)NC1(C)CN(c2nc(Nc3ccc(N4CCN(C)CC4)cc3)c3ncn(C(C)C)c3n2)C1` [Example 12, N-(1-(9-isopropyl-6-((4-(4-methylpiperazin-1-yl)phenyl)amino)-9H-purin-2-yl)-3-methylazetidin-3-yl)acrylamide], the IC50 turned out to be 6 nM in assay [1], 10 nM against EGFR del/T790M (PC9-DRH) and 140 nM in assay [2].
For `C=CC(=O)N1C[C@@H]2CN(c3nc(Nc4cnn(C)c4)c4ncn(CC)c4n3)C[C@@H]2C1` [Example 16, 1-((cis)-5-(9-ethyl-6-((1-methyl-1H-pyrazol-4-yl)amino)-9H-purin-2-yl)hexahydropyrrolo[3,4-c]pyrrol-2(1H)-yl)prop-2-en-1-one] the same measures were 88 nM, 91 nM and 507 nM.
Take `C=CC(=O)N1C[C@@H]2CN(c3nc(Nc4cnn(C)c4C)c4ncn(C(C)C)c4n3)C[C@@H]2C1` [Example 17, 1-((cis)-5-(6-((1,5-dimethyl-1H-pyrazol-4-yl)amino)-9-isopropyl-9H-purin-2-yl)hexahydropyrrolo[3,4-c]pyrrol-2(1H)-yl)prop-2-en-1-one]: the 50% inhibitory concentration (IC50) is 468 nM in assay [1], 2500 nM against EGFR del/T790M (PC9-DRH) and not below 10000 nM in assay [2].
Take `C=CC(=O)N1C[C@@H]2CN(c3nc(Nc4ccc(N5CCN(C)CC5)cc4)c4ncn(C(C)(C)C)c4n3)C[C@@H]2C1` [Example 18, 1-((cis)-5-(9-(tert-butyl)-6-((4-(4-methylpiperazin-1-yl)phenyl)amino)-9H-purin-2-yl)hexahydropyrrolo[3,4-c]pyrrol-2(1H)-yl)prop-2-en-1-one]: the IC50 in assay [1] turned out to be 32 nM; at EGFR del/T790M (PC9-DRH) it was 27 nM; in assay [2], 4570 nM.
For `C=CC(=O)Nc1cccc(Oc2nc(Nc3ccc(N4CCN(C)CC4)cc3)c3ncn(C(C)C)c3n2)c1` [Example 22, N-(3-((9-isopropyl-6-((4-(4-methylpiperazin-1-yl)phenyl)amino)-9H-purin-2-yl)oxy)phenyl)acrylamide] the same measures were 6 nM, 9 nM and 39 nM.
For `C=CC(=O)N1C[C@@H]2CN(c3nc(Nc4cnn(C)c4)c4ncn(C(C)C)c4n3)C[C@@H]2C1` [Example 25, 1-((cis)-5-(9-isopropyl-6-((1-methyl-1H-pyrazol-4-yl)amino)-9H-purin-2-yl)hexahydropyrrolo[3,4-c]pyrrol-2(1H)-yl)prop-2-en-1-one] the same measures were 49 nM, 6 nM and 805 nM.
For `C=CC(=O)N1C[C@@H]2CN(c3nc(Nc4ccc(N5CCN(C)CC5)cc4)c4ncn(C)c4n3)C[C@@H]2C1` [Example 33, 1-((cis)-5-(9-methyl-6-((4-(4-methylpiperazin-1-yl)phenyl)amino)-9H-purin-2-yl)hexahydropyrrolo[3,4-c]pyrrol-2(1H)-yl)prop-2-en-1-one] the same measures were 18 nM, 4 nM and 324 nM.
As for `C=CC(=O)N[C@H]1CCN(c2nc(Nc3ccc(N4CCN(C(C)C)CC4)cc3)c3ncn(C(C)C)c3n2)C1` [Example 36, (S)-N-(1-(9-isopropyl-6-((4-(4-isopropylpiperazin-1-yl)phenyl)amino)-9H-purin-2-yl)pyrrolidin-3-yl)acrylamide], the IC50 in assay [1] came out at 8 nM; against EGFR del/T790M (PC9-DRH), 9 nM; in assay [2], 242 nM.
For `C=CC(=O)N[C@H]1CCN(c2nc(Nc3ccc(N4CCN(C)CC4)cc3)c3ncn(C)c3n2)C1` [Example 38, (S)-N-(1-(9-methyl-6-((4-(4-methylpiperazin-1-yl)phenyl)amino)-9H-purin-2-yl)pyrrolidin-3-yl)acrylamide] the same measures were 15 nM, 6 nM and 255 nM.
In the case of `C=CC(=O)NC1(C)CN(c2nc(Nc3cnn(C4CCN(C)CC4)c3)c3ncn(C(C)C)c3n2)C1` [Example 39, N-(1-(9-isopropyl-6-((1-(1-methylpiperidin-4-yl)-1H-pyrazol-4-yl)amino)-9H-purin-2-yl)-3-methylazetidin-3-yl)acrylamide], the IC50 was determined as 66 nM in assay [1], 20 nM at EGFR del (PC9), 10 nM on EGFR del/T790M (PC9-DRH) and 2850 nM in assay [2].
As for `C=CC(=O)N[C@H]1CCN(c2nc(Nc3ccc(N4CCN(CC)CC4)cc3)c3ncn(C(C)C)c3n2)C1` [Example 40, (S)-N-(1-(6-((4-(4-ethylpiperazin-1-yl)phenyl)amino)-9-isopropyl-9H-purin-2-yl)pyrrolidin-3-yl)acrylamide], the results for the IC50 (in assay [1]; at EGFR del/T790M (PC9-DRH); in assay [2]) were 8 nM, 5 nM and 74 nM, respectively.
On to `C=CC(=O)NC1(C)CN(c2nc(Nc3cnn(CCN(C)C)c3)c3ncn(C(C)C)c3n2)C1` [Example 42, N-(1-(6-((1-(2-(dimethylamino)ethyl)-1H-pyrazol-4-yl)amino)-9-isopropyl-9H-purin-2-yl)-3-methylazetidin-3-yl)acrylamide], for which the IC50 in assay [1] came out at 26 nM; against EGFR del/T790M (PC9-DRH) it was 38 nM; in assay [2], 1350 nM.
As to `C=CC(=O)N[C@H]1CCN(c2nc(Nc3cnn(CCN(C)C)c3)c3ncn(C(C)C)c3n2)C1` [Example 43, (S)-N-(1-(6-((1-(2-(dimethylamino)ethyl)-1H-pyrazol-4-yl)amino)-9-isopropyl-9H -purin-2-yl)pyrrolidin-3-yl)acrylamide], the IC50 was determined as 74 nM in assay [1], 18 nM against EGFR del/T790M (PC9-DRH) and 1480 nM in assay [2].
For `C=CC(=O)NC1(C)CN(c2nc(Nc3cnn(C4CCN(C)C4)c3)c3ncn(C(C)C)c3n2)C1` (stereo not drawn) [Example 44, N-(1-(9-isopropyl-6-((1-(1-methylpyrrolidin-3-yl)-1H-pyrazol-4-yl)amino)-9H-purin-2-yl)-3-methylazetidin-3-yl)acrylamide] the same measures were 24 nM, 7 nM and 1150 nM.
For `C=CC(=O)N[C@H]1CCN(c2nc(Nc3cnn(C4CCN(C)C4)c3)c3ncn(C(C)C)c3n2)C1` (stereo partly drawn) [Example 45, N-((3S)-1-(9-isopropyl-6-((1-(1-methylpyrrolidin-3-yl)-1H-pyrazol-4-yl)amino)-9H -purin-2-yl)pyrrolidin-3-yl)acrylamide], the IC50 in assay [1] worked out at 26 nM; against EGFR del (PC9) it was 7 nM; against EGFR del/T790M (PC9-DRH), 3 nM; in assay [2], 1910 nM.
Regarding `C=CC(=O)N[C@@H]1CN(c2nc(Nc3ccc(N4CCN(C)CC4)cc3)c3ncn(C(C)(C)C)c3n2)C[C@H]1F` [Example 52, N-((3R,4R)-1-(9-(tert-butyl)-6-((4-(4-methylpiperazin-1-yl)phenyl)amino)-9H-purin-2-yl)-4-fluoropyrrolidin-3-yl)acrylamide], the IC50 in assay [1] is 742 nM; on EGFR del/T790M (PC9-DRH), 6 nM; in assay [2], not below 10000 nM.
For `C=CC(=O)NC1(C)CN(c2nc(Nc3cnn(C)c3)c3ncn(CC)c3n2)C1` [Example 56, N-(1-(9-ethyl-6-((1-methyl-1H-pyrazol-4-yl)amino)-9H-purin-2-yl)-3-methylazetidin-3-yl)acrylamide] the same measures were 108 nM, 2 nM and 504 nM.
For `C=CC(=O)N1CCC[C@@H](Oc2nc(Nc3cnn(C)c3)c3ncn(C(C)C)c3n2)C1` [Example 57, (R)-1-(3((9-isopropyl-6-((1-methyl-1H-pyrazol-4-yl)amino)-9H-purin-2-yl)oxy)piperidin-1-yl)prop-2-en-1-one] the same measures were 89 nM, 44 nM and 3040 nM.
Consider `C=CC(=O)N[C@@H]1CN(c2nc(Nc3cn(C)nc3C)c3ncn(C(C)C)c3n2)C[C@H]1F` [Example 61, N-((3R,4R)-1-(6-((1,3-dimethyl-1H-pyrazol-4-yl)amino)-9-isopropyl-9H-purin-2-yl) -4-fluoropyrrolidin-3-yl)acrylamide], for which the IC50 is 6140 nM in assay [1], 6650 nM against EGFR del (PC9), 2130 nM at EGFR del/T790M (PC9-DRH) and not below 10000 nM in assay [2].
As to `C=CC(=O)N[C@@H]1CN(c2nc(Nc3cnn(C)c3)c3ncn(C(C)C)c3n2)CC1(F)F` [Example 74, (R)—N-(4,4-difluoro-1-(9-isopropyl-6-((1-methyl-1H-pyrazol-4-yl)amino)-9H-purin-2-yl)pyrrolidin-3-yl)acrylamide], the IC50 was found to be 5 nM in assay [1], 2 nM on EGFR del/T790M (PC9-DRH) and 49 nM in assay [2].
For `C=CC(=O)N[C@@H]1CN(c2nc(Nc3cn(C)nc3C)c3ncn(CC)c3n2)C[C@H]1F` [Example 76, N-((3R,4R)-1-(6-((1,3-dimethyl-1H-pyrazol-4-yl)amino)-9-ethyl-9H-purin-2-yl)-4-fluoropyrrolidin-3-yl)acrylamide] the same measures were 30 nM, 2 nM and 394 nM.
For `C=CC(=O)N[C@@H]1CN(c2nc(Nc3cn(C4CCN(C)C4)nc3C)c3ncn(CC)c3n2)C[C@H]1F` (stereo partly drawn) [Example 80, N-((3R,4R)-1-(9-ethyl-6-((3-methyl-1-(1-methylpyrrolidin-3-yl)-1H-pyrazol-4-yl)amino)-9H-purin-2-yl)-4-fluoropyrrolidin-3-yl)acrylamide] the same measures were 22 nM, 10 nM and 425 nM.

A word on the IC50: it is the concentration needed to halve the response being measured. Read a high IC50 as lower potency.
